Source: ChEMBL document CHEMBL1154515, “Gamma-pyrone natural products--a privileged compound class provided by nature” (Bioorg Med Chem, 2009)
In brackets after ≈: the same amount, converted by molar mass. Activity calls are given as the source filed them. The calls are words filed in the database; no cut-off is given here.

What was measured:
T-cell = test: Inhibition of Concanavalin A-induced T cell proliferation; type: functional, cell-based
B-cell = test: Inhibition of LPS-induced B cell proliferation; type: functional, cell-based
[1] = tested on: Leptinotarsa decemlineata; test: Insecticidal activity against Leptinotarsa decemlineata at 1000 ppm; type: functional, organism-based
Helicobacter pylori = test: Antimicrobial activity against Helicobacter pylori; type: functional
HT-1080 = test: Cytotoxicity against human HT1080 cells; type: functional, cell-based
[2] = target: T1, Potassium voltage-gated channel subfamily A member 3 (Homo sapiens, UniProt P22001); test: Inhibition of voltage-gated Kv1.3 potassium channel expressed in CHO cells by 86Rb efflux experiment; type: cell-based
T1 sequence (P22001 whole entry): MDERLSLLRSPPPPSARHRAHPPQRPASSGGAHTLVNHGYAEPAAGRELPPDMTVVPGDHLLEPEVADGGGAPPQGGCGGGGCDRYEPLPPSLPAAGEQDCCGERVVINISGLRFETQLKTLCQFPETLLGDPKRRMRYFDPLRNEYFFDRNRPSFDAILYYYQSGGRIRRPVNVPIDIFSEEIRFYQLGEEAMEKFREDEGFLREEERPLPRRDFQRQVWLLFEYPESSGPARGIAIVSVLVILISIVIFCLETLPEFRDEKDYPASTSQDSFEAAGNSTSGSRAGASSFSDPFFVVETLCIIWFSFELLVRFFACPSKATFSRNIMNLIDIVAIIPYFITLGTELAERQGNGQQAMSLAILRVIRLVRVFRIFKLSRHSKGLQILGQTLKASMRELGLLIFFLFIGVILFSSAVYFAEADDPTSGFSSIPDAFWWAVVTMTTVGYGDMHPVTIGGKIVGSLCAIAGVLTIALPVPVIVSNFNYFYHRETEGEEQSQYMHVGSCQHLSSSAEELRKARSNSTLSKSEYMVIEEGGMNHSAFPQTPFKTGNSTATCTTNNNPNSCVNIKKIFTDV

[3] = Toxicity in ip dosed rat; type: organism-based; settings: in vivo
[4] = Depolarization of human T cells by electrophysiological method; type: functional, cell-based; settings: T-cell
[5] = target: T1, Potassium voltage-gated channel subfamily A member 3; test: Antagonist activity at voltage-gated Kv1.3 potassium channel; type: functional
[6] = Inhibition of NADH fumarate reductase
[7] = tested on: Leptinotarsa decemlineata; test: Insecticidal activity against Leptinotarsa decemlineata; type: functional

COc1oc([C@@H]2C[C@@]3(CO2)[C@H](c2ccc([N+](=O)[O-])cc2)[C@]2(C)C=C(C)C=C(C)[C@@H]23)c(C)c(=O)c1C
IC50 (T-cell): 0.2 µM

COc1oc([C@H]2C[C@@]3(CO2)[C@H](c2ccc([N+](=O)[O-])cc2)[C@]2(C)C=C(C)C=C(C)[C@@H]23)c(C)c(=O)c1C
IC50 (B-cell): 0.8 µM

C=C1CC[C@@H]2[C@](C)(CC[C@H](O)[C@@]2(C)CCC=C(C)C)[C@@H]1Cc1c(OC)oc(C)c(C)c1=O
Activity [1]: inactive

C/C=C(\C)[C@H](O)[C@H](C)/C=C(C)/C=C/C/C(C)=C/Cc1oc(OC)c(C)c(=O)c1C [ACTINOPYRONE A]
MIC (Helicobacter pylori): 0.1 ng/mL (≈ 0.25 nM)

C/C=C(\C)[C@H](O)[C@H](C)/C=C(C)/C=C/C/C(C)=C/Cc1oc(OC)cc(=O)c1C [ACTINOPYRONE B]
MIC (Helicobacter pylori): 0.1 ng/mL (≈ 0.259 nM)

C/C=C(\C)[C@H](O)[C@H](C)/C=C(C)/C=C/C/C(C)=C/Cc1oc(OC)c(CC)c(=O)c1C [ACTINOPYRONE C]
MIC (Helicobacter pylori): 0.1 ng/mL (≈ 0.241 nM)

COc1oc([C@H]2C/C(=C/C(C)=C\c3ccc([N+](=O)[O-])cc3)CO2)c(C)c(=O)c1C [ALLOAUREOTHIN]
IC50 (HT-1080): 30 µM

C=C1CC[C@@H]2[C@](C)(CC[C@H]3OC=CC[C@]23C)[C@@H]1Cc1c(OC)oc(C)c(C)c1=O [CANDELALIDE A]
IC50 [2]: 3.7 µM

C=C1CC[C@@H]2[C@](C)(CC[C@H]3OC(C(C)(C)O)=C(O)C[C@]23C)[C@@H]1Cc1c(OC)oc(C)c(C)c1=O [CANDELALIDE B]
IC50 [2]: 1.2 µM

C=C1CC[C@@H]2[C@](C)(CC[C@H]3OC(C(C)(C)O)=CC[C@]23C)[C@H]1Cc1c(OC)oc(C)c(C)c1=O [CANDELALIDE C]
IC50 [2]: 2.5 µM

C=C1CC[C@@H]2[C@@](C)(CCC(C)(C)O)[C@@H](O)CC[C@@]2(C)[C@H]1Cc1c(OC)oc(C)c(C(=O)OC)c1=O [COLLECTOTRICHIN A]
LD50 [3]: 16 mg/kg

C=C1CC[C@H]2[C@](C)(CCC=C(C)C)[C@@H](OC(C)=O)CC[C@]2(C)[C@@H]1Cc1c(OC)oc(C)c(C)c1=O [NALANTHALIDE]
EC50 [4]: 0.5 µM
IC50 [5]: 3.9 µM

COc1oc([C@H]2C/C(=C/C(C)=C/C(C)=C/C(C)=C/c3ccc([N+](=O)[O-])cc3)CO2)c(C)c(=O)c1C [SPECTINABILIN]
IC50 [6]: 0.015 µM

C=C1CC[C@H]2[C@](C)(CCC=C(C)C)[C@@H](OC(=O)[C@H](OC)[C@@H](C)CC)CC[C@]2(C)[C@@H]1Cc1c(OC)oc(C)c(C)c1=O [VIRIDOXIN A]
LC50 [7]: 39700 ng/mL (≈ 69600 nM)

C=C1CC[C@H]2[C@](C)(CCC=C(C)C)[C@@H](OC(=O)[C@H](O)[C@@H](C)CC)CC[C@]2(C)[C@@H]1Cc1c(OC)oc(C)c(C)c1=O [VIRIDOXIN B]
LC50 [7]: 50700 ng/mL (≈ 91100 nM)
